The values below come from US11512085B2, “Heteroaryl compound having drug activity” (SHANGHAI DUDE MEDICAL TECHNOLOGY CO., LTD, priority 2017, dated 2022).

Structures are written as SMILES. Read-outs that look alike come from different tables or passages of the source.

In general, IC50 refers to the concentration that gives 50% inhibition. Usually AUC(0-t) stands for the area under the concentration-time curve up to a stated or last time point. Low readings indicate low exposure, high ones high exposure. For orientation: Cmax means the highest concentration seen after dosing. As usually defined, the Tmax is the time at which the peak concentration occurs. Usually bioavailability stands for dose-corrected exposure relative to a reference, in per cent.

For data set [1], the system named is OCI-LY19. Nature of the data set: In vitro tumor cell proliferation (CellTiter-Glo), OCI-LY19. In kind it is cell-based. Conditions: Homo sapiens, OCI-LY19, 72 h; read-out: Growth IC50. The procedure:
(§1) Biological Embodiment 8: Study on Effects of Active Compounds for Inhibiting In Vitro Tumor Cell Proliferation
(§2) Promega CellTiter-Glo cell activity detection kit by luminescence (Promega-G7573).
(§3) Tumor cell lines were cultured in a 5% of CO2 incubator at 37° C. according to respective culture conditions; and periodic passage was performed, and cells positioned in a logarithmic phase were taken for planking.
(§4) 3) 90 μL of cell suspension was added into each well of the culture plate, and a culture solution containing no cell was added into blank control;
(§5) 4) the culture plate was cultured overnight in the 5% of CO2 incubator having relative humidity of 100% at 37° C.
(§6) Preparation of a 400× compound storage plate: the compound was diluted from the maximum concentration gradient to the lowest concentration with DMSO. […]
(§7) The following steps were performed according to the specification of the Promega CellTiter-Glo cell activity detection kit by luminescence (Promega-G7573). […]
(§8) 9) the luminescence signal was detected on the 2104 EnVision plate reader.
In general terms: In ATP-based viability assays light output follows the ATP content of the culture.

Data set [2] concerns the target LynA (Homo sapiens, UniProt P07948). Nature of the data set: Btk selectivity over LynA (same kinase method, Btk replaced). It counts as biochemical. Conditions: ratio of IC50 values. The method, then: Other kinases (e.g., inhibitory activity of Lck and LynA is determined by replacing the Btk with various kinases and performing operations the same as that in the above method).

The test system of data set [3] is SU-DHL-10. Briefly: In vitro tumor cell proliferation (CellTiter-Glo), SU-DHL-10. It counts as cell-based. Conditions: Homo sapiens, SU-DHL10; SU-DHL-10, 72 h; read-out: Growth IC50. The method, then: as §1, §2, §3, §4, §5, §6, §7, §8
The nature of data set [4]: Pharmacokinetic study, single intravenous and oral dose, SD rats. As to conditions: male, blood; for AUC(0-t) / Cmax / Tmax / half-life: Rat; for half-life: read-out: T½ (converted). In kind it is in vivo. The procedure:
Biological Embodiment 7: Pharmacokinetic Study of Performing Respective Single Intravenous and Oral Dose Delivery with Test Samples on SD Rats and Beagle Dogs
6 male SD rats were selected, and grouped and administered according to an experimental design table; 3 animals in the first group were intravenously administered once on the day of administration, wherein the administration dosage was 2 mg/kg, and the administration volume was 5 mL/kg; 3 animals in the second group were orally intragastrically administered once on the day of administration, wherein the administration dosage was 10 mg/kg, and the administration volume was 10 mL/kg.
All the animals were subjected to cage edge observation twice every day so as to determine whether the animals got ill or had injuries or death and other situations and whether supply of foods and water was sufficient. In the test process, all administered animals were subjected to detailed clinical observation before administration and at blood collection points.
Before administration (0 h) and within 0.083 h, 0.25 h, 0.5 h, 1 h, 2 h, 4 h, 6 h, 8 h and 24 h after administration, blood samples were collected from femoral veins at 10 time points so as to be used for blood concentration test.

In data set [5] the test system is p-Erk/t-Erk. Nature of the data set: Western blotting of p-Erk/t-Erk in anti-IgG stimulated DOHH2 cells. It counts as cell-based. Conditions: DOHH2 cells, 5, 100, 2000 nM, 1 h, anti-IgG stimulation. The procedure: Biological Embodiment 4: Analysis of Influences of Test Compounds on p-Btk/t-Btk, p-PLCγ/t-PLCγ and p-Erk/t-Erk Expression Levels of DOHH2 Cells by Virtue of Western Blotting
1) DOHH2 cells on a logarithmic phase were collected;
2) a cell concentration was adjusted to a needed concentration;
3) 2 ml of cell suspension was added into a 6-well plate for performing culture, three different concentrations, that is, 5 nM, 100 nM and 2000 nM, of test samples were respectively set, and each concentration was repeated once;
4) test samples were added into plate wells, and DMSO served as control, wherein a final concentration of the DMSO was 0.1%;
5) culture was performed for 1 h; and […]
6. protein extraction and quantification […]
5) a protein concentration was determined by using Pierce™ BCA Protein Assay Kit; and
6) according to BCA protein quantification results, all samples were diluted to the same final concentration by adding 4×LDS sample buffer and 10× sample reducing agent into the RIPA buffer solution, and the solution was heated at 100° C. for 10 min. […]
10) chemiluminiscence was detected by Tanon 5200 multi.
7. Quantification of strip intensity
Intensity of each strip was quantified by using Image quant densitometry software. […]
A general note: In western blotting, separated proteins are transferred to a membrane and probed.

The subject of data set [6] is OCI-LY3. Briefly: In vitro tumor cell proliferation (CellTiter-Glo), OCI-LY3. In kind it is cell-based. As to conditions: Homo sapiens, OCI-Ly3, 72 h; read-out: Growth IC50. The method, then: as §1, §2, §3, §4, §5, §6, §7, §8

Chain of LynA (P07948 whole entry): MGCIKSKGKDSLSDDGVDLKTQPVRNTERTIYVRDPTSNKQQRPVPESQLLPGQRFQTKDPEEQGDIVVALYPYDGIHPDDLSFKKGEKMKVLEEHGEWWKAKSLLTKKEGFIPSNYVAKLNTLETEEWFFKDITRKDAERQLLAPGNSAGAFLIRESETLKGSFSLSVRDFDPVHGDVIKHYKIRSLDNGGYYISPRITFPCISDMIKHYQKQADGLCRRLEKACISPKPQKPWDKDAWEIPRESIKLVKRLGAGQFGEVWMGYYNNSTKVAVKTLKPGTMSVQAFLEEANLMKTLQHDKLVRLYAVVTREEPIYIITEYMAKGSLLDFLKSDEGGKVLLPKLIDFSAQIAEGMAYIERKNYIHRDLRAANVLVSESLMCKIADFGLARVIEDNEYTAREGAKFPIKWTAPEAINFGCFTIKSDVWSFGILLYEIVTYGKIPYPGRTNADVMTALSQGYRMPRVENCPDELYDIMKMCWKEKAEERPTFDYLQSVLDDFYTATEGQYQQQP

Turning to `C=CC(=O)NN1CCCC(n2nc(-c3ccc(Oc4ccccc4)cc3)c3c(N)ncnc32)C1` (centres unmarked) [Embodiment 6, N-(3-(4-amino-3-(4-phenoxyphenyl)-1H-pyrazolo[3,4-D]pyrimidine-1-yl)-1-piperidyl)-acrylamide], the IC50 in data set [1] was found to be 6.79 µM. In data set [2], the “LynA[IC50]/Btk[IC50]” value is given as 137. In addition, the IC50 in data set [3] was more than 10 µM. Moreover, in data set [4] (IV, 2 mg/kg), the AUC(0-t) is 271 ng·h/mL, the Cmax stood at 658 ng/mL, the Tmax is 4.98 min and the half-life was 10.8 min. Moreover, in data set [4] (PO, 10 mg/kg), the AUC(0-t) is 449 ng·h/mL, the concentration peaked (Cmax) at 447 ng/mL, the Tmax was 25.2 min and the half-life is 113 min. This molecule also displayed a bioavailability in data set [4] (rat, oral, 10 mg/kg) of 32.2%. Further, the “relative level of p-Erk/t-Erk” value in data set [5] was “obviously decreased”. In data set [6], the IC50 is more than 10 µM.
